Laboratory results reported in patent publication US11311522B1 (Cavion, Inc., priority 2018, dated 2022).

Assay: PN002/Part II: safety and tolerability
Assay type: in vivo
Excerpt: Clinical safety was monitored throughout the study by adverse events, clinical laboratory tests, vital signs, ECGs, and ECG telemetry.
The subject was not on telemetry at the time.

CC(C)c1ccc(CC(=O)N[C@H](C)c2ccc(OCC(F)(F)F)cn2)cc1 [CX-8998]
Abnormal physical sensation (2 mg/d): 0 n %
Abnormal sensation of limbs (2 mg/d): 0 n %
Anger (2 mg/d): 0 n %
Application site erythema (2 mg/d): 0 n %
Application site pruritus (2 mg/d): 0 n %
At least 1 adverse event (2 mg/d): 4 (66.7) n %
Backache (2 mg/d): 0 n %
Clamminess (2 mg/d): 0 n %
Daydreaming (2 mg/d): 0 n %
Disorientation (2 mg/d): 1 (16.7) n %
Dizziness (2 mg/d): 0 n %
Drowsiness (2 mg/d): 0 n %
Dyspepsia (2 mg/d): 0 n %
Euphoric mood (2 mg/d): 0 n %
Eye Disorders (2 mg/d): 0 n %
Feeling drunk (2 mg/d): 0 n %
Feeling of relaxation (2 mg/d): 0 n %
Floating feeling (2 mg/d): 0 n %
Fuzzy head (2 mg/d): 0 n %
Gastrointestinal Disorders (2 mg/d): 2 (33.3) n %
Hallucination (2 mg/d): 0 n %
Headache (2 mg/d): 1 (16.7) n %
Heaviness of head (2 mg/d): 0 n %
Hyperactivity (2 mg/d): 0 n %
Hypoaesthesia mouth (2 mg/d): 0 n %
Increased state of alertness (2 mg/d): 0 n %
Intermittent headache (2 mg/d): 0 n %
Lethargy (2 mg/d): 0 n %
Lightheadedness (2 mg/d): 0 n %
Mood altered (2 mg/d): 0 n %
Mood change (2 mg/d): 0 n %
Musculoskeletal and Connective Tissue Disorders (2 mg/d): 2 (33.3) n %
Nausea (2 mg/d): 2 (33.3) n %
Nervous System Disorders (2 mg/d): 1 (16.7) n %
Paraesthesia generalized (2 mg/d): 0 n %
Paranoia (2 mg/d): 0 n %
Psychiatric Disorders (2 mg/d): 1 (16.7) n %
Respiratory, Thoracic and Mediastinal Disorders (2 mg/d): 1 (16.7) n %
Sedation (2 mg/d): 0 n %
Sensation of heaviness (2 mg/d): 0 n %
Sensation of pressure (2 mg/d): 0 n %
Skin and Subcutaneous Tissue Disorders (2 mg/d): 0 n %
Sleep difficult (2 mg/d): 0 n %
Sleep disturbance (2 mg/d): 0 n %
Somnolence (2 mg/d): 0 n %
Sore throat (2 mg/d): 1 (16.7) n %
Spaced out (2 mg/d): 0 n %
Syncope (2 mg/d): 1 (16.7) n %
Taste change (2 mg/d): 0 n %
Temporal disorientation (2 mg/d): 0 n %
Tingling (2 mg/d): 1 (16.7) n %
Tiredness (2 mg/d): 1 (16.7) n %
Visual disturbance (2 mg/d): 0 n %
Vivid dreams (2 mg/d): 0 n %
Vomiting (2 mg/d): 1 (16.7) n %
Abnormal physical sensation (4 mg/d): 0 n %
Abnormal sensation of limbs (4 mg/d): 0 n %
Anger (4 mg/d): 0 n %
Application site erythema (4 mg/d): 0 n %
Application site pruritus (4 mg/d): 0 n %
At least 1 adverse event (4 mg/d): 5 (83.3) n %
Backache (4 mg/d): 0 n %
Clamminess (4 mg/d): 0 n %
Daydreaming (4 mg/d): 0 n %
Disorientation (4 mg/d): 0 n %
Dizziness (4 mg/d): 0 n %
Drowsiness (4 mg/d): 2 (33.3) n %
Dyspepsia (4 mg/d): 0 n %
Euphoric mood (4 mg/d): 1 (16.7) n %
Eye Disorders (4 mg/d): 1 (16.7) n %
Feeling drunk (4 mg/d): 0 n %
Feeling of relaxation (4 mg/d): 4 (66.7) n %
Floating feeling (4 mg/d): 1 (16.7) n %
Fuzzy head (4 mg/d): 1 (16.7) n %
Gastrointestinal Disorders (4 mg/d): 1 (16.7) n %
Hallucination (4 mg/d): 0 n %
Headache (4 mg/d): 3 (50.0) n %
Heaviness of head (4 mg/d): 0 n %
Hyperactivity (4 mg/d): 0 n %
Hypoaesthesia mouth (4 mg/d): 0 n %
Increased state of alertness (4 mg/d): 1 (16.7) n %
Intermittent headache (4 mg/d): 1 (16.7) n %
Lethargy (4 mg/d): 1 (16.7) n %
Lightheadedness (4 mg/d): 4 (66.7) n %
Mood altered (4 mg/d): 0 n %
Mood change (4 mg/d): 0 n %
Musculoskeletal and Connective Tissue Disorders (4 mg/d): 0 n %
Nausea (4 mg/d): 0 n %
Nervous System Disorders (4 mg/d): 5 (83.3) n %
Paraesthesia generalized (4 mg/d): 0 n %
Paranoia (4 mg/d): 0 n %
Psychiatric Disorders (4 mg/d): 3 (50.0) n %
Respiratory, Thoracic and Mediastinal Disorders (4 mg/d): 0 n %
Sedation (4 mg/d): 0 n %
Sensation of heaviness (4 mg/d): 0 n %
Sensation of pressure (4 mg/d): 0 n %
Skin and Subcutaneous Tissue Disorders (4 mg/d): 1 (16.7) n %
Sleep difficult (4 mg/d): 0 n %
Sleep disturbance (4 mg/d): 1 (16.7) n %
Somnolence (4 mg/d): 1 (16.7) n %
Sore throat (4 mg/d): 0 n %
Spaced out (4 mg/d): 0 n %
Syncope (4 mg/d): 0 n %
Taste change (4 mg/d): 0 n %
Temporal disorientation (4 mg/d): 0 n %
Tingling (4 mg/d): 0 n %
Tiredness (4 mg/d): 2 (33.3) n %
Visual disturbance (4 mg/d): 1 (16.7) n %
Vivid dreams (4 mg/d): 2 (33.3) n %
Vomiting (4 mg/d): 0 n %
Abnormal physical sensation (8 mg/d): 0 n %
Abnormal sensation of limbs (8 mg/d): 0 n %
Anger (8 mg/d): 0 n %
Application site erythema (8 mg/d): 3 (50.0) n %
Application site pruritus (8 mg/d): 1 (16.7) n %
At least 1 adverse event (8 mg/d): 6 (100) n %
Backache (8 mg/d): 0 n %
Clamminess (8 mg/d): 1 (16.7) n %
Daydreaming (8 mg/d): 1 (16.7) n %
Disorientation (8 mg/d): 0 n %
Dizziness (8 mg/d): 0 n %
Drowsiness (8 mg/d): 1 (16.7) n %
Dyspepsia (8 mg/d): 2 (33.3) n %
Euphoric mood (8 mg/d): 2 (33.3) n %
Eye Disorders (8 mg/d): 2 (33.3) n %
Feeling drunk (8 mg/d): 0 n %
Feeling of relaxation (8 mg/d): 1 (16.7) n %
Floating feeling (8 mg/d): 2 (33.3) n %
Fuzzy head (8 mg/d): 1 (16.7) n %
Gastrointestinal Disorders (8 mg/d): 3 (50.0) n %
Hallucination (8 mg/d): 0 n %
Headache (8 mg/d): 5 (83.3) n %
Heaviness of head (8 mg/d): 0 n %
Hyperactivity (8 mg/d): 2 (33.3) n %
Hypoaesthesia mouth (8 mg/d): 0 n %
Increased state of alertness (8 mg/d): 1 (16.7) n %
Intermittent headache (8 mg/d): 1 (16.7) n %
Lethargy (8 mg/d): 1 (16.7) n %
Lightheadedness (8 mg/d): 4 (66.7) n %
Mood altered (8 mg/d): 1 (16.7) n %
Mood change (8 mg/d): 2 (33.3) n %
Musculoskeletal and Connective Tissue Disorders (8 mg/d): 1 (16.7) n %
Nausea (8 mg/d): 1 (16.7) n %
Nervous System Disorders (8 mg/d): 6 (100) n %
Paraesthesia generalized (8 mg/d): 1 (16.7) n %
Paranoia (8 mg/d): 0 n %
Psychiatric Disorders (8 mg/d): 3 (50.0) n %
Respiratory, Thoracic and Mediastinal Disorders (8 mg/d): 3 (50.0) n %
Sedation (8 mg/d): 2 (33.3) n %
Sensation of heaviness (8 mg/d): 1 (16.7) n %
Sensation of pressure (8 mg/d): 2 (33.3) n %
Skin and Subcutaneous Tissue Disorders (8 mg/d): 1 (16.7) n %
Sleep difficult (8 mg/d): 0 n %
Sleep disturbance (8 mg/d): 0 n %
Somnolence (8 mg/d): 2 (33.3) n %
Sore throat (8 mg/d): 1 (16.7) n %
Spaced out (8 mg/d): 1 (16.7) n %
Syncope (8 mg/d): 0 n %
Taste change (8 mg/d): 1 (16.7) n %
Temporal disorientation (8 mg/d): 2 (33.3) n %
Tingling (8 mg/d): 1 (16.7) n %
Tiredness (8 mg/d): 3 (50.0) n %
Visual disturbance (8 mg/d): 1 (16.7) n %
Vivid dreams (8 mg/d): 2 (33.3) n %
Vomiting (8 mg/d): 1 (16.7) n %
Abnormal physical sensation (12 mg/d): 0 n %
